In patent US20250179061A1 (SIRONAX LTD., priority 2022, published 2025) one finds IC50 data, which are given here for 22 compounds.

The subject of the test is HT-29 cells. Briefly: HT-29 necroptosis cell viability assay (TNF-α/SMAC mimetic/zVAD-FMK, CellTiter-Glo). The test is classed as cell-based. The conditions noted are these: Homo sapiens. As to the method: Compounds 1-702 of the disclosure were tested for biological activity, following the experimental procedures described below.
• Cell line: HT-29 (ATCC® HTB-38™) • Culture medium: McCOY's 5A, Gibco, Cat No. 16600-082 • FBS, Gibco, Cat No. 10099-141 C • Trypsin: Gibco, Cat No. 25200-056 • DMSO: Sigma, Cat No. 67-68-5, 1L • Assay plate: Corning #3903 • Compound dilution plate: Corning #3357 • Inducers: TNFα, GenScript, Cat No. Z01001-50, • SmacM, Cat. No., HY-15989, MedChemExpress (MCE) • Z_VAD FMK, TargetMol, T6013 • Cell Titer-Glo® Luminescent Cell Viability Assay Kit: Promega, Cat No. G7573 • EnVision: PerkinElmer, 2105-0010
• 1. HT-29 cells were checked every day to make sure that they were healthy and growing as expected. They were subjected to sub-culturing when they were approximately 80% confluent. • 2. The culture medium, McCOY's 5A medium (Gibco, Cat No. 16600-082) with 10% fetal bovine serum or FBS (Gibco, Cat No. 10099-141C), was pre-warmed in a 37° C. water bath for at least 30 min. • 3. When the cells had reached a desired level of confluency of 80% in a T75 flask, the medium was aspirated, and the cells were washed with warm phosphate buffered saline or PBS two times. • 4. 2-3 ml fresh warm trypsin (Gibco, Cat No. 25200-056) solution was added to the washed cells. The flask with the cells was transferred to a 37° C. incubator. • 5. After 5 minutes, the side of the flask was tapped, and the flask was examined under a microscope for detachment of the cells to the flask. If necessary, the cells were kept in the incubator for an additional 5-10 minutes, with occasional tapping, until lifting was complete. • 6. The trypsin reaction was neutralized by transferring 6-9 ml cell culture medium to sterile 15 ml conical tubes, and by centrifuging the cell culture at 300×g for 7 minutes to pellet the cells (supernatant decanted). • 7. The cells were resuspended in fresh cell culture medium and the cell counting was performed using a hemocytometer. • 8. 100 μl of the resuspended cell culture medium containing ˜5,000 cells were transferred into each well of the sterile 96-well cell culture plate (Corning 3903) and cultured overnight at 37° C. with 5% CO2.
• 1. All test compounds were dissolved in DMSO (Dimethyl sulfoxide) to create a 20 mM stock. • 2. 3 μl of 20 mM stock of each compound was mixed with 27 μl DMSO, and the compound solution was further diluted at a titration ratio of 1:3 (20 μl compound solution+40 μl DMSO) till the 10 points end. • 3. All culture medium was removed from assay plates filled with HT-29 cell cultures. The cells were then washed with 1 PBS, and resuspsended in fresh, FBS-free McCOY's 5A medium containing a cocktail of TNF-α (10 ng/ml), a SMAC mimetic compound (6 μM) and Z-VAD-fluoromethylketone or zVAD-FMK (10 μM) to stimulate the HT-29 cells to increase RIP1 kinase levels and necroptosis. • 4. 0.5 μL of the diluted compound solution was added to the corresponding 96-well assay plates. • 5. The assay plates were incubated for 20 hours at 37° C. with 5% CO2.
• 1. The CellTiter-Glo® Luminescent Cell Viability Assay was employed to detect the ATP levels of viable HT-29 cells. • 2. The CellTiter-Glo® buffer and the lyophilized substrate were equilibrated to room temperature prior to use. • 3. The CellTiter-Glo® substrate was resuspended with CellTiter-Glo® buffer, then mixed by gently vortexing to obtain a homogeneous solution. • 4. 20 μl of the enzyme/substrate mixture was transferred by multi-channel pipetting into 96-well assay plates. • 5. The assay plates were placed on an orbital shaker and the contents were shaken for 3 minutes to induce cell lysis. • 6. The assay plates were incubated at room temperature for 10 minutes to stabilize the luminescent signal. • 7. The luminescence signals were read and recorded with EnVision. • 8. The geometric mean IC50 values were calculated from 10 points response dose with duplicates. […]
For orientation: ATP-based viability assays read luminescence as a measure of living cells.

Where [1] appears, read: HT-29 cells stimulated with TNF-α (10 ng/ml), SMAC mimetic (6 μM) and zVAD-FMK (10 μM), 20 hours, CellTiter-Glo ATP luminescence, geometric mean IC50 from 10 points, read-out: Activity.
Setting [2] is: HT-29, HT-29 necroptosis cell viability, IC50 class symbols, read-out: Activity.
[3] abbreviates: HT-29, HT-29 necroptosis cell viability assay, class symbols for IC50, read-out: Activity.

Read-outs that look alike come from different tables or passages of the source.

`CCOC1CN(c2cc(Oc3ccc(-n4ncn(Cc5c(F)cccc5F)c4=O)cc3)c(C)s2)C1` [Example 85, 4-(2,6-difluorobenzyl)-2-(4-((5-(3-ethoxyazetidin-1-yl)-2-methylthiophen-3-yl)oxy)phenyl)-2,4-dihydro-3H-1,2,4-triazol-3-one]: the IC50 under setting [1] was above 10000 nM. The same measure, in the same setting: the result for `Cc1nc(C(N)=O)oc1Oc1ccc(-n2nc3n(c2=O)[C@H](c2c(F)cccc2F)CC3)cc1F` (single isomer, unassigned) [Example 701] reads below 100 nM. Regarding `CC1(O)CN(c2cc(Oc3ccc(-n4ncn(Cc5c(F)cccc5F)c4=O)cc3)ccn2)C1` [Example 329, 4-(2,6-difluorobenzyl)-2-(4-((2-(3-hydroxy-3-methylazetidin-1-yl)pyridin-4-yl)oxy)phenyl)-2,4-dihydro-3H-1,2,4-triazol-3-one], the IC50 under setting [2] was below 100 nM. With `Cc1nn(CC2COC2)c(C)c1Oc1ccc(-n2ncn(Cc3c(F)cccc3F)c2=O)cc1F` [Example 179, 4-(2,6-difluorobenzyl)-2-(4-((3,5-dimethyl-1-(oxetan-3-ylmethyl)-1H-pyrazol-4-yl)oxy)-3-fluorophenyl)-2,4-dihydro-3H-1,2,4-triazol-3-one], under setting [3], the IC50 was below 100 nM. As to `Cc1nn(-c2ccc(Cc3ccccc3)cc2)c(=O)n1Cc1ccccc1` [Example 65, 4-benzyl-2-(4-benzylphenyl)-5-methyl-2,4-dihydro-3H-1,2,4-triazol-3-one], under setting [1], the IC50 was below 100 nM. Still for that read-out and setting: under `COC(=O)c1nc(C)c(Oc2ccc(-n3nc4n(c3=O)[C@@H](c3ccccc3)CC4)cc2F)s1` (single isomer, unassigned) [Example 35] stands 1000 to 10000 nM. `Cc1c(C(N)=O)nn(C)c1Oc1ccc(-n2nc3n(c2=O)C(c2ccccc2)CC3)cc1F` (stereo not shown) [Example 23, 5-(2-fluoro-4-(3-oxo-5-phenyl-6,7-dihydro-3H-pyrrolo[2,1-c][1,2,4]triazol-2(5H)-yl)phenoxy)-1,4-dimethyl-1H-pyrazole-3-carboxamide]: the IC50 under setting [1] was below 100 nM. In the case of `O=c1n(Cc2c(F)cccc2F)cnn1-c1ccc(Oc2ccnc(N3CC4(CCCOC4)C3)c2)cc1` [Example 335, 2-(4-((2-(6-oxa-2-azaspiro[3.5]nonan-2-yl)pyridin-4-yl)oxy)phenyl)-4-(2,6-difluorobenzyl)-2,4-dihydro-3H-1,2,4-triazol-3-one], the IC50 under setting [2] is below 100 nM. In the case of `COC(=O)c1nc(C)sc1Oc1ccc(-n2ncn(Cc3c(F)cccc3F)c2=O)cc1F` [Example 127, methyl 5-(4-(4-(2,6-difluorobenzyl)-5-oxo-4,5-dihydro-1H-1,2,4-triazol-1-yl)-2-fluorophenoxy)-2-methylthiazole-4-carboxylate], under setting [3], the IC50 is below 100 nM. The same measure, in the same setting: under `Cc1nc(C(=O)N2CC(C)(N)C2)sc1Oc1ccc(-n2ncn(Cc3ccccc3F)c2=O)cc1F` [Example 591, 2-(4-((2-(3-amino-3-methylazetidine-1-carbonyl)-4-methylthiazol-5-yl)oxy)-3-fluorophenyl)-4-(2-fluorobenzyl)-2,4-dihydro-3H-1,2,4-triazol-3-one] stands below 100 nM; under `Cc1cn(Cc2ccc(-n3nc4n(c3=O)C(c3ccccc3)CC4)cc2F)c(C)c1C(N)=O` (stereo not shown) [Example 222, 1-(2-fluoro-4-(3-oxo-5-phenyl-6,7-dihydro-3H-pyrrolo[2,1-c][1,2,4]triazol-2(5H)-yl)benzyl)-2,4-dimethyl-1H-pyrrole-3-carboxamide], below 100 nM; under `CCC1(Nc2cc(Oc3ccc(-n4ncn(Cc5c(F)cccc5F)c4=O)cc3)ccn2)CC1` [Example 528, 4-(2,6-difluorobenzyl)-2-(4-((2-((1-ethylcyclopropyl)amino)pyridin-4-yl)oxy)phenyl)-2,4-dihydro-3H-1,2,4-triazol-3-one], 100 to 1000 nM. As for `CCOC1CN(c2nccc(Oc3ccc(-n4ncn(Cc5c(F)cccc5F)c4=O)cc3)c2Cl)C1` [Example 261, 2-(4-((3-chloro-2-(3-ethoxyazetidin-1-yl)pyridin-4-yl)oxy)phenyl)-4-(2,6-difluorobenzyl)-2,4-dihydro-3H-1,2,4-triazol-3-one], the IC50 under setting [2] was 100 to 1000 nM. Same read-out and setting: under `Cc1cnc(N2CC(C)(C#N)C2)nc1Oc1ccc(-n2ncn(Cc3c(F)cccc3F)c2=O)cc1F` [Example 225, 1-[4-(4-{4-[(2,6-difluorophenyl)methyl]-5-oxo-1,2,4-triazol-1-yl}-2-fluorophenoxy)-5-methylpyrimidin-2-yl]-3-methylazetidine-3-carbonitrile] stands 100 to 1000 nM. As to `Cc1nc(C(N)=O)cn1Cc1ccc(-n2ncn(Cc3c(F)cccc3F)c2=O)cc1F` [Example 103, 1-(4-(4-(2,6-difluorobenzyl)-5-oxo-4,5-dihydro-1H-1,2,4-triazol-1-yl)-2-fluorobenzyl)-2-methyl-1H-imidazole-4-carboxamide], the IC50 under setting [1] was 100 to 1000 nM. With `Cc1nc(C(N)=O)sc1Oc1ccc(-n2ncn(Cc3cc(F)ccc3F)c2=O)cc1F` [Example 564, 5-(4-(4-(2,5-difluorobenzyl)-5-oxo-4,5-dihydro-1H-1,2,4-triazol-1-yl)-2-fluorophenoxy)-4-methylthiazole-2-carboxamide], under setting [3], the IC50 was below 100 nM. With `N#Cc1cccc(Oc2ccc(-n3ncn(Cc4c(F)cccc4F)c3=O)cc2)c1` [Example 437, 3-(4-(4-(2,6-difluorobenzyl)-5-oxo-4,5-dihydro-1H-1,2,4-triazol-1-yl)phenoxy)benzonitrile], the IC50 under setting [2] was below 100 nM. The same measure, in the same setting: under `CC(C)(C)Oc1cc(Oc2ccc(-n3ncn(Cc4c(F)cccc4F)c3=O)cc2)ccn1` [Example 388, 2-(4-((2-(tert-butoxy)pyridin-4-yl)oxy)phenyl)-4-(2,6-difluorobenzyl)-2,4-dihydro-3H-1,2,4-triazol-3-one] stands 100 to 1000 nM. Consider `Nc1nc(COc2ccc(-n3ncn(Cc4c(F)cccc4F)c3=O)cc2F)cs1` [Example 659, 2-(4-((2-aminothiazol-4-yl)methoxy)-3-fluorophenyl)-4-(2,6-difluorobenzyl)-2,4-dihydro-3H-1,2,4-triazol-3-one], for which the IC50 (HT-29, HT-29 cells, necroptosis induced by TNF-α/SMAC mimetic/zVAD-FMK, CellTiter-Glo, read-out: Activity (IC50 class)) was 100 to 1000 nM. Take `CC1(N)CN(c2cc(Oc3ccc(-n4ncn(Cc5c(F)cccc5F)c4=O)cc3F)c(C#N)cn2)C1` [Example 396, 6-(3-amino-3-methylazetidin-1-yl)-4-(4-(4-(2,6-difluorobenzyl)-5-oxo-4,5-dihydro-1H-1,2,4-triazol-1-yl)-2-fluorophenoxy)nicotinonitrile]: under setting [2], the IC50 lay in the range of 100 to 1000 nM. On to `O=c1n(Cc2c(F)cccc2F)cnn1-c1ccc(Oc2ccnc(N3CC4(COC4)C3)c2)cc1` [Example 527, 2-(4-((2-(2-oxa-6-azaspiro[3.3]heptan-6-yl)pyridin-4-yl)oxy)pheny)-4-(2,6-difluorobenzyl)-2,4-dihydro-3H-1,2,4-triazol-3-one], for which, under setting [3], the IC50 lay in the range of 100 to 1000 nM. With `Cc1cnc(N2CC3(CCOCC3)C2)cc1Oc1ccc(-n2ncn(Cc3c(F)cccc3F)c2=O)cc1` [Example 263, 4-(2,6-difluorobenzyl)-2-(4-((5-methyl-2-(7-oxa-2-azaspiro[3.5]nonan-2-yl)pyridin-4-yl)oxy)phenyl)-2,4-dihydro-3H-1,2,4-triazol-3-one], under setting [2], the IC50 is below 100 nM.
